Test results reported in ChEMBL document CHEMBL3739395, “Discovery and optimisation of 1-acyl-2-benzylpyrrolidines as potent dual orexin receptor antagonists” (Medchemcomm, 2015).
Calls of active or inactive are those of the source. The rule behind the calls is not given here.

Key:
[1] = Fraction unbound in rat brain; type: ADME, tissue-based
[2] = biological target: T1, Orexin receptor type 2 (Homo sapiens) (UniProt O43614); assay: Competitive antagonist activity against human orexin-2 receptor expressed in CHO cells assessed as shift in orexin-A CRC at IC50 incubated for 120 mins in presence of orexin-A by Cheng-Prusoff equation analysis; type: cell-based
T1 sequence (whole entry): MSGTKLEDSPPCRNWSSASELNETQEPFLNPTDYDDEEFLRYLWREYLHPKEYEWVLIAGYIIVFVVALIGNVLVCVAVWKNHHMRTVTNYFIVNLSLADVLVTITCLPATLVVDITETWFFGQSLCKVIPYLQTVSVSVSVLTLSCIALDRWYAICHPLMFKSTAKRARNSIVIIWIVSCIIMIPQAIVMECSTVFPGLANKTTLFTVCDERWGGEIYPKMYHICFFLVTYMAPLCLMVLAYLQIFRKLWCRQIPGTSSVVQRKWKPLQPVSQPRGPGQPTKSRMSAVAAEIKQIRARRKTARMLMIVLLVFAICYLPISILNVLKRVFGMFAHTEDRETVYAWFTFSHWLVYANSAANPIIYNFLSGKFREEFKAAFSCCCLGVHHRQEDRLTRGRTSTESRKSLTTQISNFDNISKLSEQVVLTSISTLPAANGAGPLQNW

[3] = biological target: T2, Orexin/Hypocretin receptor type 1 (Homo sapiens) (UniProt O43613); settings: CHO
T2 sequence (whole entry): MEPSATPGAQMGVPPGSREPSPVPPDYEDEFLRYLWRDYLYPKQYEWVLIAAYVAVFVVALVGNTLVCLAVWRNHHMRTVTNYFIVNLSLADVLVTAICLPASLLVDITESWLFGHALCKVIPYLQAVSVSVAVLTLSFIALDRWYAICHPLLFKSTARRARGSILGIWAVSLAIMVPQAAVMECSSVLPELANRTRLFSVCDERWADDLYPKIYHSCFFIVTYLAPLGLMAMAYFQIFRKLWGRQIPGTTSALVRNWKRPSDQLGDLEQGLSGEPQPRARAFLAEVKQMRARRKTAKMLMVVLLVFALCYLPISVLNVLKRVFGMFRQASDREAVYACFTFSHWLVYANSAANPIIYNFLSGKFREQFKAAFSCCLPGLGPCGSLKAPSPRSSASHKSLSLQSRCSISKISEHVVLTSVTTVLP
Description: Inhibition of human orexin-1 receptor expressed in CHO cells assessed as occupancy half life preincubated for 120 mins followed by stimulation with orexin-A post compound washout measured at 0 to 30 mins by FLIPR assay

[4] = biological target: T2, Orexin/Hypocretin receptor type 1 (Homo sapiens); assay: Competitive antagonist activity against human orexin-1 receptor expressed in CHO cells assessed as shift in orexin-A CRC at IC50 incubated for 120 mins in presence of orexin-A by Cheng-Prusoff equation analysis; type: cell-based
[5] = biological target: T1, Orexin receptor type 2 (Homo sapiens); assay: Inhibition of human orexin-2 receptor expressed in CHO cells assessed as time duration for Kb change preincubated for 120 mins followed by stimulation with orexin-A post compound washout by FLIPR assay; type: cell-based
[6] = Drug uptake in Wistar rat cerebrospinal fluid at 100 mg/kg, po measured 3 hrs post dose; type: ADME, organism-based; settings: read-out: Drug uptake
[7] = biological target: T3, Orexin receptor type 2 (Rattus norvegicus) (UniProt P56719); assay: Insurmountable antagonist activity against rat orexin-2 receptor expressed in CHO cells assessed as calcium release at IC50 preincubated for 120 mins followed by addition of orexin-A by Cheng-Prusoff equation analysis; type: functional, cell-based
T3 sequence (whole entry): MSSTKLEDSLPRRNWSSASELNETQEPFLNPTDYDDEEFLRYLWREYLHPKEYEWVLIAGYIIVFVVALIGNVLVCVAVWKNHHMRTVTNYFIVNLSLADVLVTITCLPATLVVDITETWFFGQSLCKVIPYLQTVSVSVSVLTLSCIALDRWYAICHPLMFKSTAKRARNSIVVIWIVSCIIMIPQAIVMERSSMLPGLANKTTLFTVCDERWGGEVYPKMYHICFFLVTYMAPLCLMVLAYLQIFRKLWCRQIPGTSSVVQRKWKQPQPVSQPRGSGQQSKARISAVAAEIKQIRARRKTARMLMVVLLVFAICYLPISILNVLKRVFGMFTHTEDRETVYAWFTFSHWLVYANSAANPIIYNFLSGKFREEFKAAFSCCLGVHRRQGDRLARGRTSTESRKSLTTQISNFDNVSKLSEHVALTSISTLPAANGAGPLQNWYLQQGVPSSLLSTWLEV

[8] = test system: Rattus norvegicus; assay: Increase in time spent in non-rapid eye movement sleep in Wistar rat sleep model at 100 mg/kg, po administered as single dose during first 6 hrs of night active period post dose relative to vehicle control; type: functional
[9] = biological target: T4, Orexin receptor type 2 (Homo sapiens, UniProt O43614); assay: Inhibition of human orexin-2 receptor expressed in CHO cells assessed as calcium release preincubated for 120 mins followed by addition of orexin-A by fluo-4 AM based-FLIPR analysis; type: functional, cell-based
T4 sequence (O43614 whole entry): T1 sequence (whole entry)

[10] = biological target: T1, Orexin receptor type 2 (Homo sapiens); assay: Insurmountable antagonist activity against human orexin-2 receptor expressed in CHO cells assessed as calcium release at IC50 preincubated for 120 mins followed by addition of orexin-A by Cheng-Prusoff equation analysis; type: functional, cell-based
[11] = Intrinsic clearance in rat liver microsomes at 1 uM; type: ADME; settings: read-out: CLH
[12] = Fraction unbound in rat plasma; type: ADME, cell-free
[13] = test system: Rattus norvegicus; assay: Increase in time spent in quiet wake state in Wistar rat sleep model at 100 mg/kg, po administered as single dose during first 6 hrs of night active period post dose relative to vehicle control; type: functional
[14] = test system: Brain; assay: Free drug level in rat brain; type: ADME, tissue-based; settings: in vivo
[15] = biological target: T2, Orexin/Hypocretin receptor type 1 (Homo sapiens); assay: Insurmountable antagonist activity against human orexin-1 receptor expressed in CHO cells assessed as calcium release at IC50 preincubated for 120 mins followed by addition of orexin-A by Cheng-Prusoff equation analysis; type: functional, cell-based
[16] = biological target: T5, Orexin/Hypocretin receptor type 1 (Rattus norvegicus) (UniProt P56718); assay: Insurmountable antagonist activity against rat orexin-1 receptor expressed in CHO cells assessed as calcium release at IC50 preincubated for 120 mins followed by addition of orexin-A by Cheng-Prusoff equation analysis; type: functional, cell-based
T5 sequence (whole entry): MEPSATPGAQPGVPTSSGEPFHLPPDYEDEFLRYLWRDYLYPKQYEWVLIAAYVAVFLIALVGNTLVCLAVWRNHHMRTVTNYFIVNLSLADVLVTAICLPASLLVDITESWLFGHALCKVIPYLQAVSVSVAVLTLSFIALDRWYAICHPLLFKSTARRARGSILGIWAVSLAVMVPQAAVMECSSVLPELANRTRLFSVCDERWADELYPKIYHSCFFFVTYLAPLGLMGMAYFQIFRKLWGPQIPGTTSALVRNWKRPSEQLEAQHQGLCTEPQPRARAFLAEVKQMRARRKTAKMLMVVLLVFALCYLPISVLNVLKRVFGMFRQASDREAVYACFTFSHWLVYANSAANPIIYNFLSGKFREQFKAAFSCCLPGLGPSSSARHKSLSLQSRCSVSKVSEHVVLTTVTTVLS

[17] = test system: Rattus norvegicus; assay: Reduction in home cage activity in Wistar rat sleep model at 100 mg/kg, po administered as single dose during first 6 hrs of night active period post dose relative to vehicle control; type: functional; set-up: scale not given: the % may be the effect or the level left
[18] = Ratio of drug level in brain to plasma of rat; type: ADME; settings: brain and plasma, read-out: BPR
[19] = biological target: T6, Orexin/Hypocretin receptor type 1 (Homo sapiens, UniProt O43613); assay: Inhibition of human orexin-1 receptor expressed in CHO cells assessed as calcium release preincubated for 120 mins followed by addition of orexin-A by fluo-4 AM based-FLIPR analysis; type: functional, cell-based
T6 sequence (O43613 whole entry): T2 sequence (whole entry)

[20] = test system: Rattus norvegicus; assay: Reduction in time spent in active wake state in Wistar rat sleep model at 100 mg/kg, po administered as single dose during first 6 hrs of night active period post dose relative to vehicle control; type: functional; set-up: scale not given: the % may be the effect or the level left
[21] = test system: Rattus norvegicus; assay: Sleep promoting effect in Wistar rat sleep model at 100 mg/kg, po administered as single dose during first 6 hrs of night active period post dose relative to vehicle control; type: functional, organism-based
[22] = Intrinsic clearance in human liver microsomes at 1 uM; type: ADME; settings: read-out: CLH
[23] = test system: Rattus norvegicus; assay: Increase in time spent in rapid eye movement sleep in Wistar rat sleep model at 100 mg/kg, po administered as single dose during first 6 hrs of night active period post dose relative to vehicle control; type: functional
[24] = biological target: T2, Orexin/Hypocretin receptor type 1 (Homo sapiens); assay: Inhibition of human orexin-1 receptor expressed in CHO cells assessed as time duration for Kb change preincubated for 120 mins followed by stimulation with orexin-A post compound washout by FLIPR assay; type: cell-based
[25] = biological target: T1, Orexin receptor type 2 (Homo sapiens); settings: CHO
Description: Inhibition of human orexin-2 receptor expressed in CHO cells assessed as occupancy half life preincubated for 120 mins followed by stimulation with orexin-A post compound washout measured at 0 to 30 mins by FLIPR assay

fraction unbound [1]: 0.04
inhibition [2]: Active
T1/2 [3]: 1.1 min
inhibition [4]: Active
TIME [5]: 0.333 h
concentration at 3 h [6]: 0.133 µg/mL
Kb [7]: 1.7 nM
IC50 [9]: 6.6 nM
Kb [10]: 1.4 nM
microsomal CLint at 1 µM [11]: > 1250 µL/min/mg
fraction unbound [12]: 0.027
Drug uptake(free) [14]: 60 nM
Kb [15]: 5.3 nM
Kb [16]: 7.3 nM
Kp [18]: 0.68
IC50 [19]: 11 nM
microsomal CLint at 1 µM [22]: 197 µL/min/mg
TIME [24]: 0.0833 h
T1/2 [25]: 5.4 min
Compound: COc1ccc(C[C@@H]2CCCN2C(=O)c2nc(C)sc2-c2ccc3c(c2)OCO3)cc1OC
Activity [8]: 18%
Activity [13]: 17%
Activity [17]: 47%
Activity [20]: -29%
Activity [21]: Active
Activity [23]: 84%
